ChEMBL document CHEMBL1201862, “PubChem BioAssay data set” (2004)
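Exposure lasted 48 hours, with cells grown in 96-well plates and compounds tested at five concentrations. GI50: concentration for 50% inhibition of growth.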 Calls of active or inactive are those of the source. Rule as the data show it: active = GI50 up to about 1.1 µM and inactive = higher.

Legend:
Test in all cases: NCI tumour cell line growth inhibition, 48 h
NCI-H460 = system: NCI-H460
SW-620 = system: SW-620
HL-60 = system: HL-60
HCC 2998 = system: HCC 2998
OVCAR-5 = system: OVCAR-5
NCI-H522 = system: NCI-H522
SN12C = system: SN12C
KM12 = system: KM12
RXF 393 = system: RXF 393
MOLT-4 = system: MOLT-4
786-0 = system: 786-0
COLO 205 = system: COLO 205
SNB-19 = system: SNB-19
SK-MEL-2 = system: SK-MEL-2
DU-145 = system: DU-145
CAKI-1 = system: CAKI-1
M14 = system: M14
HCT-15 = system: HCT-15
MDA-MB-435 = system: MDA-MB-435
IGROV-1 = system: IGROV-1

| SMILES | GI50 (NCI-H460) | GI50 (SW-620) | GI50 (HL-60) | GI50 (HCC 2998) | GI50 (OVCAR-5) | GI50 (NCI-H522) | GI50 (SN12C) | GI50 (KM12) | GI50 (RXF 393) | GI50 (MOLT-4) | GI50 (786-0) | GI50 (COLO 205) | GI50 (SNB-19) | GI50 (SK-MEL-2) | GI50 (DU-145) | GI50 (CAKI-1) | GI50 (M14) | GI50 (HCT-15) [µM] | GI50 (MDA-MB-435) | GI50 (IGROV-1) |
| --- | --- | --- | --- | --- | --- | --- | --- | --- | --- | --- | --- | --- | --- | --- | --- | --- | --- | --- | --- | --- |
| COc1ccc(C2c3cc4c(c(OC)c3CC3OCC(=O)C32)OCO4)cc1OC (stereo not drawn) | 0.0625 µM (active) | 0.0366 µM (active) | < 0.01 µM (active) | 0.129 µM (active) | 0.153 µM (active) | < 0.01 µM (active) | < 0.01 µM (active) | 0.0318 µM (active) | 0.0212 µM (active) | 0.13 µM (active) | 0.0348 µM (active) | 0.0267 µM (active) | 0.0538 µM (active) | 0.78 µM (active) | 0.0218 µM (active) | 0.0405 µM (active) | 0.0482 µM (active) | 0.0417 | 0.0146 µM (active) | < 0.01 µM (active) |
| CSc1[nH]nc(N)c1C(=O)Nc1ccccc1 | > 100 µM (inactive) | > 100 µM (inactive) | > 100 µM (inactive) | > 100 µM (inactive) | > 100 µM (inactive) | 52.4 µM (inactive) | > 100 µM (inactive) | > 100 µM (inactive) | > 100 µM (inactive) | > 100 µM (inactive) | > 100 µM (inactive) | > 100 µM (inactive) | > 100 µM (inactive) | > 100 µM (inactive) | > 100 µM (inactive) | > 100 µM (inactive) | > 100 µM (inactive) | > 100 | > 100 µM (inactive) | > 100 µM (inactive) |
| Cc1nc(N)nc(N)c1N1CCN(Cc2ccccc2)CC1 | 5.87 µM (inactive) | 38.9 µM (inactive) | 25.1 µM (inactive) | 25.2 µM (inactive) | > 37.8 µM (inactive) | 24.8 µM (inactive) | 56.1 µM (inactive) | 27 µM (inactive) | 13.4 µM (inactive) | 29.7 µM (inactive) | 4.73 µM (inactive) | 31.8 µM (inactive) | 55.5 µM (inactive) | 64.6 µM (inactive) | 37.2 µM (inactive) | 37.1 µM (inactive) | 13.3 µM (inactive) | 9.42 | 11.4 µM (inactive) | 19.9 µM (inactive) |
| CCOC(=O)C1(Cc2ccc(C)cc2)Cc2ccc(C)cc2C1=O (stereo not drawn) | 27.9 µM (inactive) | 4.71 µM (inactive) | 2.55 µM (inactive) | 16.8 µM (inactive) | 52.5 µM (inactive) | 6.34 µM (inactive) | 14.9 µM (inactive) | 4.57 µM (inactive) | 4.6 µM (inactive) | 4.23 µM (inactive) | 31.1 µM (inactive) | 11.7 µM (inactive) | 36.6 µM (inactive) | 14.6 µM (inactive) | 41.4 µM (inactive) | 19.5 µM (inactive) | 9.59 µM (inactive) | 7.85 | 2.81 µM (inactive) | 21.1 µM (inactive) |
| CC(=O)N(C(C)=O)c1cc2c3c(c1)CCCN3CCC2 | > 10 µM (inactive) | > 10 µM (inactive) | > 10 µM (inactive) | > 10 µM (inactive) | > 10 µM (inactive) | > 10 µM (inactive) | > 10 µM (inactive) | > 10 µM (inactive) | > 10 µM (inactive) | > 10 µM (inactive) | > 10 µM (inactive) | > 10 µM (inactive) | > 10 µM (inactive) | > 10 µM (inactive) | > 10 µM (inactive) | > 10 µM (inactive) | > 10 µM (inactive) | > 10 | > 10 µM (inactive) | > 10 µM (inactive) |
| O=C(Nc1cc2c(=O)oc3ccccc3c2oc1=O)c1cccnc1 | > 100 µM (inactive) | > 100 µM (inactive) | 48 µM (inactive) | > 100 µM (inactive) | > 100 µM (inactive) | > 100 µM (inactive) | > 100 µM (inactive) | > 100 µM (inactive) | > 100 µM (inactive) | > 100 µM (inactive) | > 100 µM (inactive) | > 100 µM (inactive) | 73.5 µM (inactive) | 83.2 µM (inactive) | > 100 µM (inactive) | > 100 µM (inactive) | 79.6 µM (inactive) | > 100 | > 100 µM (inactive) | > 100 µM (inactive) |
| CN(CCN(C)Cc1ccc(Cl)c(Cl)c1)CCN1CCCC1 | 27.5 µM (inactive) | 24.3 µM (inactive) | 17.5 µM (inactive) | 14.5 µM (inactive) | 39.3 µM (inactive) | 19.6 µM (inactive) | > 48 µM (inactive) | 29.9 µM (inactive) | 18.5 µM (inactive) | 9.33 µM (inactive) | 17.1 µM (inactive) | 19.2 µM (inactive) | > 49.3 µM (inactive) | 24.2 µM (inactive) | 61.2 µM (inactive) | 36 µM (inactive) | 23.2 µM (inactive) | 37.2 | 7.82 µM (inactive) | 15.8 µM (inactive) |
| Cc1cc(S(=O)(=O)N2CCNNC2=O)c(S)cc1Cl | > 100 µM (inactive) | 36.9 µM (inactive) | 39.7 µM (inactive) | > 100 µM (inactive) | > 100 µM (inactive) | 22.5 µM (inactive) | > 100 µM (inactive) | > 100 µM (inactive) | 13.7 µM (inactive) | 31.6 µM (inactive) | 19.9 µM (inactive) | > 100 µM (inactive) | > 100 µM (inactive) | > 100 µM (inactive) | > 100 µM (inactive) | 33.5 µM (inactive) | 41.6 µM (inactive) | 56.5 | > 100 µM (inactive) | 87.9 µM (inactive) |
| COc1ccc(/C=C/C(=O)N[C@@H]2C(=O)N3[C@@H]2SC(C)(C)[C@@H]3C(=O)O)cc1 | > 100 µM (inactive) | > 100 µM (inactive) | > 100 µM (inactive) | > 100 µM (inactive) | > 100 µM (inactive) | 69.2 µM (inactive) | > 100 µM (inactive) | > 100 µM (inactive) | > 100 µM (inactive) | > 100 µM (inactive) | > 100 µM (inactive) | > 100 µM (inactive) | > 100 µM (inactive) | > 100 µM (inactive) | > 100 µM (inactive) | > 100 µM (inactive) | > 100 µM (inactive) | > 100 | > 100 µM (inactive) | – |
| COC(=O)[C@@H]1C[C@]2(CC=C(C)C)c3ccccc3N(S(=O)(=O)c3ccccc3)[C@@H]2N1C(=O)OC | 14.1 µM (inactive) | 40.6 µM (inactive) | 9.14 µM (inactive) | 10.6 µM (inactive) | > 100 µM (inactive) | 10.3 µM (inactive) | 40.6 µM (inactive) | 19.7 µM (inactive) | 8.22 µM (inactive) | 8.2 µM (inactive) | 25.1 µM (inactive) | 28.2 µM (inactive) | 34.1 µM (inactive) | 5.96 µM (inactive) | > 100 µM (inactive) | 27.2 µM (inactive) | – | 10.4 | 10.4 µM (inactive) | – |
| Cc1nc2c(o1)C(=O)c1ccccc1/C2=N\c1ccccc1 | 5.66 µM (inactive) | 2.58 µM (inactive) | 2.42 µM (inactive) | 15.2 µM (inactive) | 5.85 µM (inactive) | 1.86 µM (inactive) | 2.04 µM (inactive) | 6.07 µM (inactive) | 1.57 µM (inactive) | – | 8.38 µM (inactive) | 13.9 µM (inactive) | 3.96 µM (inactive) | 1.46 µM (inactive) | 1.74 µM (inactive) | 17.9 µM (inactive) | 0.841 µM (active) | 2.25 | 0.352 µM (active) | 7.98 µM (inactive) |
| O=C(Nc1c(Cl)cccc1Cl)c1c(Cl)c(Cl)c(Cl)c(Cl)c1-c1nc2ccccc2[nH]1 | > 100 µM (inactive) | 64.6 µM (inactive) | > 100 µM (inactive) | 38.5 µM (inactive) | > 100 µM (inactive) | 37 µM (inactive) | 49.5 µM (inactive) | 0.155 µM (active) | 18 µM (inactive) | 75.3 µM (inactive) | 36.4 µM (inactive) | 42.8 µM (inactive) | – | > 100 µM (inactive) | 62.2 µM (inactive) | 62.7 µM (inactive) | 22.1 µM (inactive) | 98.9 | 38.2 µM (inactive) | 14.2 µM (inactive) |
| Cc1ccc(/N=N/c2c(C)nn(C(=O)CC(=O)Nc3ccccc3)c2C)cc1C | > 100 µM (inactive) | > 100 µM (inactive) | > 100 µM (inactive) | > 100 µM (inactive) | > 100 µM (inactive) | > 100 µM (inactive) | > 100 µM (inactive) | > 100 µM (inactive) | > 100 µM (inactive) | > 100 µM (inactive) | > 100 µM (inactive) | > 100 µM (inactive) | – | > 100 µM (inactive) | > 100 µM (inactive) | > 100 µM (inactive) | > 100 µM (inactive) | > 100 | > 100 µM (inactive) | > 100 µM (inactive) |
| CC(NC(=O)c1ccc(NP(=O)(OCc2ccc([N+](=O)[O-])o2)N(C)CCCCCl)cc1)c1ccc(OCC2CCCCC2)c(C(N)=O)c1 (stereo not drawn) | 17.1 µM (inactive) | 28.4 µM (inactive) | 16 µM (inactive) | 11.4 µM (inactive) | 25.4 µM (inactive) | 15.5 µM (inactive) | 18.9 µM (inactive) | 13.8 µM (inactive) | 10.9 µM (inactive) | 9.71 µM (inactive) | 17.5 µM (inactive) | 10.9 µM (inactive) | 28.2 µM (inactive) | 16.1 µM (inactive) | 29.3 µM (inactive) | 26.4 µM (inactive) | – | 46 | 12 µM (inactive) | 15.9 µM (inactive) |
